According to EP0974354A1, “Artemisinin derivatives” (The Hong Kong University of Science & Technology, priority 1998, dated 2000):
Converted amounts (≈) assume the structure as drawn. “And” between values parts separate entries of the source, which are not always exact repeats. Equal entries are not always repeated. Where two headings read alike, the source gives them in different places.

Columns and labels:
[1] = test system: Plasmodium Falciparum W2 Strain (Chloroquine resistant); test: In vitro screening against Plasmodium falciparum, radiolabelled hypoxanthine incorporation, W2 strain; type: cell-based; conditions: for IC50 / IC90: Plasmodium falciparum; for IC50: read-out: In vitro activity: IC50, W2 Strain (Chloroquine resistant); for IC90: read-out: In vitro activity: IC90, W2 Strain (Chloroquine resistant)
Procedure: (§1) Two parasite strains - W2 resistant to chloroquine, and D6 sensitive to chloroquine but resistant to mefloquine were used.
(§2) The assay relies on incorporation of radiolabelled hypoxanthine by the parasite and inhibition of incorporation is attributed to activity of known or candidate antimalarial drugs. For each assay, proven antimalarials such as chloroquine, mefloquine, quinine, artemisinin and pyrimethamine were used as controls. The incubation period was 66 hours, and the starting parasitemia was 0.2% with 1% hematocrit. The medium was an RPMI-1640 culture with no folate or p-aminobenzoic acid. […] If a compound was submitted with no prior knowledge of activity, it was dissolved directly in dimethyl sulphoxide (DMSO), and diluted 400 fold with complete culture medium. […] These dilutions were performed automatically by a Biomek 1000 Liquid Handling System in 96-well microtiter plates. The diluted drugs were then transferred to test plates, 200 µl of parasitized erythrocytes were added, and incubated at 37°C in a controlled environment of 5% CO2, 5% O2 and 90% N2. After 42 hours, 25 µl of ^3H-hypoxanthine was added, and the plates incubated for an additional 24 hours. After 66 hours, the plates were frozen at -70°C to lyse the red cells, and then thawed and harvested onto glass fiber filter mats in a 96-well harvester. The filter mats were then counted in a scintillation counter.
(§3) A prescreen format can be used wherein a 3-dilution assay may be used to determine activity at high medium or low concentrations. The concentrations were selected as 50,000, 500 and 50 ng ml^-1. These were performed in duplicate on a 96-well format plate with 14 test compounds and one known (standard) compound per plate. The system was automated with a Biomek diluter for mixing and diluting the drugs, and adding drugs and parasites to a test plate.
(§4) In the prescreen format, if the […] […] If the AF has a ">", then the IC value is greater than the prescreen dilution value; thus "AF>250" means that the IC value is greater than 250 ng ml^-1 and no further screening is carried out. In such cases, values of 0.00 are entered for IC values.

[2] = test system: Plasmodium Falciparum D6 Strain (Chloroquine sensitive); test: In vitro screening against Plasmodium falciparum, radiolabelled hypoxanthine incorporation, D6 strain; type: cell-based; conditions: for IC50 / IC90: Plasmodium falciparum
Procedure: as §1, §2, §3, §4

[3] = test system: parasite of the genus Plasmodium; test: Antimalarial activity, general statement in the description, test not specified; conditions: qualitative statement
[4] = W2 Strain (Chloroquine resistant), 66 hours incubation, Albumax medium
[5] = D6 Strain (Chloroquine sensitive), 66 hours incubation, Albumax medium
[6] = W2, 66 h, 66 hours incubation, Albumax medium
[7] = D6, 66 h, D6 Strain (Chloroquine sensitive), 66 hours incubation, Albumax medium, read-out: In vitro activity: IC50
[8] = D6, 66 h, D6 Strain (Chloroquine sensitive), 66 hours incubation, Albumax medium, read-out: In vitro activity: IC90

SMILES	In vitro activity: IC50 [2, 5] [ng/mL]	In vitro activity: IC90 [2, 5] [ng/mL]	IC50 [1, 6] [ng/mL]	IC90 [1, 6] [ng/mL]	In vitro activity: IC50 ([1]; W2, 66 h) [ng/mL]	In vitro activity: IC90 ([1]; W2, 66 h) [ng/mL]	IC50 [2, 7] [ng/mL]	IC90 [2, 8] [ng/mL]	In vitro activity: (IC10) [2, 5]	In vitro activity: (IC10) ([1]; W2, 66 h) [ng/mL]	also measured
CC1CCC2C(C)C(OCc3ccc4ccccc4c3)OC3OC4(C)CCC1C32OO4 (single isomer, unassigned) [3(α-isomer), 10α-[(2'-naphthylmethyl)oxy]dihydroartemisinin]	1.24	1.67							0.93 ng/mL		In vitro activity: (IC10) [1, 4]: 0.62 ng/mL; In vitro activity: IC50 [1, 4]: 1.54 ng/mL; In vitro activity: IC90 [1, 4]: 3.83 ng/mL
C[C@H]1[C@@H](OCc2ccc3ccccc3c2)O[C@@H]2O[C@@]3(C)CC[C@H]4[C@H](C)CC[C@@H]1[C@@]24OO3 [3(β-isomer), 10β-[(2'-naphthylmethyl)oxy]dihydroartemisinin]	0.64	0.80	0.64 (≈ 1.51 nM)	0.78 (≈ 1.84 nM)	0.63	1.25	0.4 (≈ 0.942 nM)	0.53 (≈ 1.25 nM)	0.31 ng/mL and 0.51 ng/mL		
CC1CCC2C(C)C(Oc3ccnc4ccccc34)OC3OC4(C)CCC1C32OO4 (stereo not drawn) [10β-(4'-Quinolinoxy)dihydroartemisinin]											antimalarial activity [3]: particularly interesting antimalarial activity
C[C@H]1[C@H](OCc2cccc3ccccc23)O[C@@H]2O[C@@]3(C)CC[C@H]4[C@H](C)CC[C@@H]1[C@@]24OO3 [11(α-isomer)]	1.47	1.81	0.67 (≈ 1.58 nM)	1.01 (≈ 2.38 nM)	0.70	1.17	1.42 (≈ 3.34 nM)	1.97 (≈ 4.64 nM)	1.03 ng/mL and 1.20 ng/mL		
C[C@H]1[C@@H](OCC(F)(F)F)O[C@@H]2O[C@@]3(C)CC[C@H]4[C@H](C)CC[C@@H]1[C@@]24OO3 [Example 1, 10β-[(2',2',2'-trifluoroethyl)oxy]dihydroartemisinin]			0.26 (≈ 0.71 nM)						0.57 ng/mL		In vitro activity: (IC10) [1, 4]: 0.19 ng/mL and 0.20 ng/mL; In vitro activity: IC50 [1, 4]: 0.51 ng/mL; IC50 ([2]; D6, 66 h, read-out: In vitro activity: IC50): 0.77 ng/mL (≈ 2.1 nM); IC90 ([2]; D6, 66 h, read-out: In vitro activity: IC90): 1.04 ng/mL (≈ 2.84 nM)
C[C@H]1[C@@H](Oc2ccnc3cc(C(F)(F)F)ccc23)O[C@@H]2O[C@@]3(C)CC[C@H]4[C@H](C)CC[C@@H]1[C@@]24OO3 [Example 2, 10β-[4'-(7'-trifluoromethylquinolinoxy)]dihydroartemisinin]			0.67 (≈ 1.4 nM)	0.81 (≈ 1.69 nM)			0.71 (≈ 1.48 nM)	0.93 (≈ 1.94 nM)	0.55 ng/mL	0.56	antimalarial activity [3]: particularly interesting antimalarial activity
C[C@H]1[C@@H](OCc2ccccc2F)O[C@@H]2O[C@@]3(C)CC[C@H]4[C@H](C)CC[C@@H]1[C@@]24OO3 [Example 8]			0.83 (≈ 2.11 nM)	1.08 (≈ 2.75 nM)			0.75 (≈ 1.91 nM)	1.22 (≈ 3.11 nM)	0.46 ng/mL	0.63	
C[C@H]1[C@@H](OCc2cccc(F)c2)O[C@@H]2O[C@@]3(C)CC[C@H]4[C@H](C)CC[C@@H]1[C@@]24OO3 [Example 9]			0.45 (≈ 1.15 nM)	0.59 (≈ 1.5 nM)			0.36 (≈ 0.917 nM)	1.7 (≈ 4.33 nM)	0.08 ng/mL	0.35	
C[C@H]1[C@@H](OCc2ccc(F)cc2)O[C@@H]2O[C@@]3(C)CC[C@H]4[C@H](C)CC[C@@H]1[C@@]24OO3 [Example 10]			0.25 (≈ 0.637 nM)	0.86 (≈ 2.19 nM)			0.34 (≈ 0.866 nM)	0.58 (≈ 1.48 nM)	0.20 ng/mL	0.07	

The next lines start with results.

In vitro activity: IC50 [2, 5] [ng/mL]	In vitro activity: IC90 [2, 5] [ng/mL]	IC50 [1, 6] [ng/mL]	IC90 [1, 6] [ng/mL]	In vitro activity: IC50 ([1]; W2, 66 h) [ng/mL]	In vitro activity: IC90 ([1]; W2, 66 h) [ng/mL]	IC50 [2, 7] [ng/mL]	IC90 [2, 8] [ng/mL]	SMILES	In vitro activity: (IC10) [2, 5]	In vitro activity: (IC10) ([1]; W2, 66 h) [ng/mL]	also measured
		132 (≈ 277 nM)	173 (≈ 365 nM)	187.76	301.34			C[C@H]1[C@@H](OCc2c3ccccc3cc3ccccc23)O[C@@H]2O[C@@]3(C)CC[C@H]4[C@H](C)CC[C@@H]1[C@@]24OO3 [Example 12]			In vitro activity: (IC10) ([2]; D6, 66 h): 102.79 ng/mL; IC50 ([2]; D6, 66 h, read-out: In vitro activity: IC50, D6 Strain (Chloroquine sensitive), 66 hours incubation, Albumax medium): 136 ng/mL (≈ 286 nM); IC90 ([2]; D6, 66 h, read-out: In vitro activity: IC90, D6 Strain (Chloroquine sensitive), 66 hours incubation, Albumax medium): 179 ng/mL (≈ 378 nM)
		0.62 (≈ 1.31 nM)	0.79 (≈ 1.66 nM)			0.58 (≈ 1.22 nM)	0.77 (≈ 1.62 nM)	C[C@H]1[C@@H](OCc2cccc3c2ccc2ccccc23)O[C@@H]2O[C@@]3(C)CC[C@H]4[C@H](C)CC[C@@H]1[C@@]24OO3 [Example 13]	0.44 ng/mL	0.50	
		17.2 (≈ 34.5 nM)	24.9 (≈ 49.9 nM)			37.9 (≈ 76.1 nM)	49.5 (≈ 99.2 nM)	C[C@H]1[C@@H](OCc2ccc3ccc4cccc5ccc2c3c45)O[C@@H]2O[C@@]3(C)CC[C@H]4[C@H](C)CC[C@@H]1[C@@]24OO3 [Example 14]	29.09 ng/mL	11.90	
0.61	0.91	1.24 (≈ 3.01 nM)	6.45 (≈ 15.7 nM)	2.03	9.11	0.43 (≈ 1.04 nM)	0.8 (≈ 1.94 nM)	C[C@H]1[C@@H](Oc2ccnc3ccccc23)O[C@@H]2O[C@@]3(C)CC[C@H]4[C@H](C)CC[C@@H]1[C@@]24OO3 [Example 15]	0.23 ng/mL and 0.41 ng/mL		
